Article PMC9133015 (Nature Communications, 2022)
Several values for one entry are separate records, joined by “and”; a condition that tells them apart may be missing. Identical values can stand only once.

Key:
Test in all cases: Kinase inhibitor specificity profiling (Reaction Biology Corporation)
Assay type in all cases: biochemical
Parameters in all cases: % Enzyme Activity (relative to DMSO controls): concentration or dose not given beside the values
[1] = target: T1, panel of 370 protein kinases (Homo sapiens, UniProt O60307); conditions: 2 h, kinase MAST3; read-out: % Enzyme Activity (relative to DMSO controls)
T1 construct: purchased Reaction Biology Corporation (assay service)

[2] = target: T2, panel of 370 protein kinases (Homo sapiens, UniProt P51451); conditions: 2 h, kinase BLK; read-out: % Enzyme Activity (relative to DMSO controls)
T2 construct: purchased Reaction Biology Corporation (assay service)

[3] = target: T3, panel of 370 protein kinases (Homo sapiens, UniProt P42679); conditions: 2 h, kinase CTK/MATK; read-out: % Enzyme Activity (relative to DMSO controls)
T3 construct: purchased Reaction Biology Corporation (assay service)

[4] = target: T4, panel of 370 protein kinases (Homo sapiens, UniProt P37023); conditions: 2 h, kinase ALK1/ACVRL1; read-out: % Enzyme Activity (relative to DMSO controls)
T4 construct: purchased Reaction Biology Corporation (assay service)

[5] = target: T5, panel of 370 protein kinases (Homo sapiens, UniProt O15264); conditions: 2 h, kinase P38d/MAPK13; read-out: % Enzyme Activity (relative to DMSO controls)
T5 construct: purchased Reaction Biology Corporation (assay service)

[6] = target: T6, panel of 370 protein kinases (Homo sapiens, UniProt P21802); conditions: 2 h, kinase FGFR2; read-out: % Enzyme Activity (relative to DMSO controls)
T6 construct: purchased Reaction Biology Corporation (assay service)

[7] = target: T7, panel of 370 protein kinases (Homo sapiens, UniProt P49137); conditions: 2 h, kinase MAPKAPK2; read-out: % Enzyme Activity (relative to DMSO controls)
T7 construct: purchased Reaction Biology Corporation (assay service)

[8] = target: T8, panel of 370 protein kinases (Homo sapiens, UniProt P05771); conditions: 2 h, kinase PKCb1; read-out: % Enzyme Activity (relative to DMSO controls)
T8 construct: purchased Reaction Biology Corporation (assay service)

[9] = target: T9, panel of 370 protein kinases (Homo sapiens, UniProt P22607); conditions: 2 h, kinase FGFR3; read-out: % Enzyme Activity (relative to DMSO controls)
T9 construct: purchased Reaction Biology Corporation (assay service)

[10] = target: T10, panel of 370 protein kinases (Homo sapiens, UniProt Q86Y07); conditions: 2 h, kinase VRK2; read-out: % Enzyme Activity (relative to DMSO controls)
T10 construct: purchased Reaction Biology Corporation (assay service)

[11] = target: T11, panel of 370 protein kinases (Homo sapiens, UniProt P45984); conditions: kinase JNK2
T11 construct: purchased Reaction Biology Corporation (assay service)

[12] = target: T12, panel of 370 protein kinases (Homo sapiens, UniProt P52564); conditions: 2 h, kinase MKK6; read-out: % Enzyme Activity (relative to DMSO controls)
T12 construct: purchased Reaction Biology Corporation (assay service)

[13] = target: T13, panel of 370 protein kinases (Homo sapiens, UniProt Q8WTQ7); conditions: 2 h, kinase GRK7; read-out: % Enzyme Activity (relative to DMSO controls)
T13 construct: purchased Reaction Biology Corporation (assay service)

[14] = target: T14, panel of 370 protein kinases (Homo sapiens, UniProt Q86V86); conditions: 2 h, kinase PIM3; read-out: % Enzyme Activity (relative to DMSO controls)
T14 construct: purchased Reaction Biology Corporation (assay service)

[15] = target: T15, panel of 370 protein kinases (Homo sapiens, UniProt P21709); conditions: 2 h, kinase EPHA1; read-out: % Enzyme Activity (relative to DMSO controls)
T15 construct: purchased Reaction Biology Corporation (assay service)

[16] = target: T16, panel of 370 protein kinases (Homo sapiens, UniProt Q8IW41); conditions: 2 h, kinase MAPKAPK5/PRAK; read-out: % Enzyme Activity (relative to DMSO controls)
T16 construct: purchased Reaction Biology Corporation (assay service)

[17] = target: T17, panel of 370 protein kinases (Homo sapiens, UniProt P51617); conditions: 2 h, kinase IRAK1; read-out: % Enzyme Activity (relative to DMSO controls)
T17 construct: purchased Reaction Biology Corporation (assay service)

[18] = target: T18, panel of 370 protein kinases (Homo sapiens, UniProt Q92630); conditions: 2 h, kinase DYRK2; read-out: % Enzyme Activity (relative to DMSO controls)
T18 construct: purchased Reaction Biology Corporation (assay service)

[19] = target: T19, panel of 370 protein kinases (Homo sapiens, UniProt O94806); conditions: 2 h, kinase PKCnu/PRKD3; read-out: % Enzyme Activity (relative to DMSO controls)
T19 construct: purchased Reaction Biology Corporation (assay service)

[20] = target: T20, panel of 370 protein kinases (Homo sapiens, UniProt P51817); conditions: 2 h, kinase PRKX; read-out: % Enzyme Activity (relative to DMSO controls)
T20 construct: purchased Reaction Biology Corporation (assay service)

[21] = target: T21, panel of 370 protein kinases (Homo sapiens, UniProt P54753); conditions: 2 h, kinase EPHB3; read-out: % Enzyme Activity (relative to DMSO controls)
T21 construct: purchased Reaction Biology Corporation (assay service)

T11 sequence (P45984 whole entry): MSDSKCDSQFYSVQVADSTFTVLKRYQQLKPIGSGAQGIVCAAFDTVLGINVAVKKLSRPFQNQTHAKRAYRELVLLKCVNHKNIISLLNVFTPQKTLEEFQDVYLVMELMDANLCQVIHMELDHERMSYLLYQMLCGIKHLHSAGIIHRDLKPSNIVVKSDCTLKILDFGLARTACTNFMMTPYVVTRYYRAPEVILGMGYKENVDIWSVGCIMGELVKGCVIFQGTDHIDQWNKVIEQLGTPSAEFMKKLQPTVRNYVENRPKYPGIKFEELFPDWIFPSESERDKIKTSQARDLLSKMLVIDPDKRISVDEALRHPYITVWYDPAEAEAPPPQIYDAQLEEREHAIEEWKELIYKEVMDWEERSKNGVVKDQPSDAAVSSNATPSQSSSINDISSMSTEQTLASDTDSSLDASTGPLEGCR
T20 sequence (P51817 whole entry): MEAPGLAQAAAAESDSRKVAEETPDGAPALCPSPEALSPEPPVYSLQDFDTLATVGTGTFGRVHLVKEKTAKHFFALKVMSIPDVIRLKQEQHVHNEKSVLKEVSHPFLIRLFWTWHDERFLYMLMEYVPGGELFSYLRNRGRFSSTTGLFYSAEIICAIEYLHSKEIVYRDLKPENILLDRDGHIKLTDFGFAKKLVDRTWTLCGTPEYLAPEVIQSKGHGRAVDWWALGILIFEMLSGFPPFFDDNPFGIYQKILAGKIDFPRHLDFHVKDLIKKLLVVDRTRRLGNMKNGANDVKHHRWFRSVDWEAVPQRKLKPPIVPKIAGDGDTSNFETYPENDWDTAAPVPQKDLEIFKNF
T13 sequence (Q8WTQ7 whole entry): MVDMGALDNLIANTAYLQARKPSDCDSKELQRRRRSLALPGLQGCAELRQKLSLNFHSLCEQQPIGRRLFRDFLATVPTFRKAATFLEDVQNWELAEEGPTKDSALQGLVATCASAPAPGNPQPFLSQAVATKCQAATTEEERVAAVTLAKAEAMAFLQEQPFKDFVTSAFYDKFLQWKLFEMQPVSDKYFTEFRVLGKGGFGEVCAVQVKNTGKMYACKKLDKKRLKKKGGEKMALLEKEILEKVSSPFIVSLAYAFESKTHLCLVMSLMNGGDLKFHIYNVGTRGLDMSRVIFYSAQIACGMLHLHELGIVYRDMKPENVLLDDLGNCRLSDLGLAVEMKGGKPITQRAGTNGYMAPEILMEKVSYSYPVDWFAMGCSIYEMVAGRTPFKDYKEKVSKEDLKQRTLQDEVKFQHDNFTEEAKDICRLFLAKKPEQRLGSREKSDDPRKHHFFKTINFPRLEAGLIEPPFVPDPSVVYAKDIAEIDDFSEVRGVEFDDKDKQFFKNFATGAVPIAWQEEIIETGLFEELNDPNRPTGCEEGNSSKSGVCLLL
T9 sequence (P22607 23-806): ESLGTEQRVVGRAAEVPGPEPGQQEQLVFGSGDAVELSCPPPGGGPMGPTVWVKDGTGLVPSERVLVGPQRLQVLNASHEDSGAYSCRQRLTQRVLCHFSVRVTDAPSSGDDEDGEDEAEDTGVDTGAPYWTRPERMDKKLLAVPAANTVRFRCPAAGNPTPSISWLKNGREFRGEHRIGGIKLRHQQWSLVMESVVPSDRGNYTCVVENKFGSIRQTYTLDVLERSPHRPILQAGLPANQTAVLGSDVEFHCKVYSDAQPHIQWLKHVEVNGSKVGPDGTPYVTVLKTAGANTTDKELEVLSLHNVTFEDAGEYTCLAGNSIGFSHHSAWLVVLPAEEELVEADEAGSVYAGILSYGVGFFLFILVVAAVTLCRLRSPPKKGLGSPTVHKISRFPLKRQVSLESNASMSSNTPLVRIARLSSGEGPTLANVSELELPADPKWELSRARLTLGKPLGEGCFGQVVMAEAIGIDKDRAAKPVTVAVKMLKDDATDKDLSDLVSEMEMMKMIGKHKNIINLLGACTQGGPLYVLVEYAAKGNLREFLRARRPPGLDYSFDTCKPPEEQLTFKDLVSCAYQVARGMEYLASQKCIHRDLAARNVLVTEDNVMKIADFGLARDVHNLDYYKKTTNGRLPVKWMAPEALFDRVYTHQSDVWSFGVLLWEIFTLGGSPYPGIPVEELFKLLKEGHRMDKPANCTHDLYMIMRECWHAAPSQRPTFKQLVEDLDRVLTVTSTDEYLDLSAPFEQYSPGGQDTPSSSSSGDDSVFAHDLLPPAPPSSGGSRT
T3 sequence (P42679 whole entry): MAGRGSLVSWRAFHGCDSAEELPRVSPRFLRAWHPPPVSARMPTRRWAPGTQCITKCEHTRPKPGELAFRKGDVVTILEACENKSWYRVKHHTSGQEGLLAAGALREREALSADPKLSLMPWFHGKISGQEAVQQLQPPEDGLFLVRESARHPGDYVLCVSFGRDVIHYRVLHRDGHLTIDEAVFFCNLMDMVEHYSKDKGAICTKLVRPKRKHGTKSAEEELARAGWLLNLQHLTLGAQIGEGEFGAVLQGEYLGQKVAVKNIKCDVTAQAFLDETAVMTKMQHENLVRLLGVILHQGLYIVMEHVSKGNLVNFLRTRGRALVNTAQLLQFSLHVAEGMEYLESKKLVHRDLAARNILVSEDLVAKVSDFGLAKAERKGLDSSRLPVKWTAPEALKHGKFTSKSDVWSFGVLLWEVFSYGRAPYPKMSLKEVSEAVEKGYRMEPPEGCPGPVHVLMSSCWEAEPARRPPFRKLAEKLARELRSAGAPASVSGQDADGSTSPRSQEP
T19 sequence (O94806 whole entry): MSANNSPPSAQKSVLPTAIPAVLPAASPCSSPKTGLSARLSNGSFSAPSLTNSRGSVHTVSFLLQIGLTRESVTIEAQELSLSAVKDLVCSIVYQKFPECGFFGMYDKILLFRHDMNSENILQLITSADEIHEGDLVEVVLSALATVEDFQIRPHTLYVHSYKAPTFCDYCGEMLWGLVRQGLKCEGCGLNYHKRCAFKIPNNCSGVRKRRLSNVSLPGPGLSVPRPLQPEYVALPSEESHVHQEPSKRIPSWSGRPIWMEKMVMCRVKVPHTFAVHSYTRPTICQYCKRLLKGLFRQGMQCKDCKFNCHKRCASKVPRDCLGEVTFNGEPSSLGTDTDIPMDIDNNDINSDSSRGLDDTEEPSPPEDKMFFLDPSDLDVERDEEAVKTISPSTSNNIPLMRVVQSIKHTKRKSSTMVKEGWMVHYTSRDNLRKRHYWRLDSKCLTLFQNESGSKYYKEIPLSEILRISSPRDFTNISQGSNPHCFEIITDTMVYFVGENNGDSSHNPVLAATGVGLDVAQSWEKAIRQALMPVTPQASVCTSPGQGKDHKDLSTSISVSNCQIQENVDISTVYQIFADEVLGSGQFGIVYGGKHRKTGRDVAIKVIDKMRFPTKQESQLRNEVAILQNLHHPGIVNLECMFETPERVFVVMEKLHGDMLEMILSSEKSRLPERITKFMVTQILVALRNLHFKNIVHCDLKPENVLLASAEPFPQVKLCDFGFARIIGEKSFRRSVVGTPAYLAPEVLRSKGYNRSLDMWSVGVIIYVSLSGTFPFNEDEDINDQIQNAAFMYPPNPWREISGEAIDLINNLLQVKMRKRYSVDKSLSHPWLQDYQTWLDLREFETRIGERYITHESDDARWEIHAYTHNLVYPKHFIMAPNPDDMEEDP
T4 sequence (P37023 22-503): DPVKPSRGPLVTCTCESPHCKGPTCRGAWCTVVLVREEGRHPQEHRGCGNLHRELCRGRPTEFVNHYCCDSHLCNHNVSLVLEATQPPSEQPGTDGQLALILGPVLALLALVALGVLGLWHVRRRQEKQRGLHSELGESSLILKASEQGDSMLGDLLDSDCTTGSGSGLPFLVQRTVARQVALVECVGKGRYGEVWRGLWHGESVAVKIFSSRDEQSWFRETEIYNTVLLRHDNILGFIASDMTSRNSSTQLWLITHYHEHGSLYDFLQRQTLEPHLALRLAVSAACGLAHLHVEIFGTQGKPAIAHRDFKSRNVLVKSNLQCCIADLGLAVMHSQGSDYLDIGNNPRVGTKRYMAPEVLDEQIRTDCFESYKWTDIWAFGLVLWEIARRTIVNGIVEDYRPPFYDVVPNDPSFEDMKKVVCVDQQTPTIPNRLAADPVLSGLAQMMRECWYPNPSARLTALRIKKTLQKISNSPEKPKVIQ
T7 sequence (P49137 whole entry): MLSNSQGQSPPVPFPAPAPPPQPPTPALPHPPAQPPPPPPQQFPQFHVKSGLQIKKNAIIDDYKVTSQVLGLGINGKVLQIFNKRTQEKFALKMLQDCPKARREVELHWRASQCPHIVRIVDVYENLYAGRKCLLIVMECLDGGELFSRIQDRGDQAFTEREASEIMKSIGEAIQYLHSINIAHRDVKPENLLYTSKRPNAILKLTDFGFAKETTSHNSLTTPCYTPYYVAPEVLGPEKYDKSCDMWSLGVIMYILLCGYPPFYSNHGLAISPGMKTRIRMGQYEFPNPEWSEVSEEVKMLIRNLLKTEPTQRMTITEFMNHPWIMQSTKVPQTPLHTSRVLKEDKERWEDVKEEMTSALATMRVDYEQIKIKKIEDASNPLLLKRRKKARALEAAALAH
T5 sequence (O15264 whole entry): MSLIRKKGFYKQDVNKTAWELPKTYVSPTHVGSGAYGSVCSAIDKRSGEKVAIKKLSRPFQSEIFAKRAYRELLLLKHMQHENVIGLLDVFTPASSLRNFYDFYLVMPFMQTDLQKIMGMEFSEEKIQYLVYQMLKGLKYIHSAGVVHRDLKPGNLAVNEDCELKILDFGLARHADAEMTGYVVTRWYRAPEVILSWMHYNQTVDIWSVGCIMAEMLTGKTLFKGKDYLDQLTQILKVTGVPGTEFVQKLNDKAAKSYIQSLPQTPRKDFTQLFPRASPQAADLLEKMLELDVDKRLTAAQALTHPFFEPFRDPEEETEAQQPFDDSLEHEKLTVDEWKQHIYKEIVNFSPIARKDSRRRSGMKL

`CCN1CCN(C(=O)c2ccc(Nc3ncc(F)c(-c4ccc5nc(N(C)C)sc5c4)n3)nc2)CC1` [YK-2-69] showed a remaining activity at 1 µM [1] of 88.1%, a remaining activity at 1 µM [2] of 100% and a remaining activity at 1 µM [3] of 98%. It also gave a remaining activity at 1 µM [4] of 106%, a remaining activity at 1 µM [5] of 102% and a remaining activity at 1 µM [6] of 86.2%. It also gave a remaining activity at 1 µM [7] of 83.2%, a remaining activity at 1 µM [8] of 101% and a remaining activity at 1 µM [9] of 94%. For the same compound, the remaining activity at 1 µM [10] was 93.1%, the “% Enzyme Activity (relative to DMSO controls)” value [11] was 83.83% and 82.64% and the remaining activity at 1 µM [12] was 89.5%. It also gave a remaining activity at 1 µM [13] of 102%, a remaining activity at 1 µM [14] of 55.8% and a remaining activity at 1 µM [15] of 109%. For the same compound, the remaining activity at 1 µM [16] was 98.5%, the remaining activity at 1 µM [17] was 90.6% and the remaining activity at 1 µM [18] was 5.23%. For the same compound, the remaining activity at 1 µM [19] was 75.6%, the remaining activity at 1 µM [20] was 95.1% and the remaining activity at 1 µM [21] was 112%.
